Reference: patent US9242973B2, “Chromane compounds” (CoMentis, Inc., priority 2012, dated 2016)
Where a name gives a salt, the structure may show the parent alone.

What follows are compounds tested on Aβ production in SK-N-BE(2) neuroblastoma cells (assay: Test Example 3: Aβ production inhibition in cell (Aβ40 ELISA, SK-N-BE(2))). Conditions: Homo sapiens, SKNBE2, 6 h, read-out: Test Example 3 IC50.

Compound | IC50
CC1(C)Oc2ccc(NC(=O)c3ccc(Cl)cn3)cc2C2(COC(N)=N2)C12COC2 (stereo not drawn) [Example 27, N-(2-amino-2′,2′-dimethyldispiro[1,3-oxazole-4,4′-chromene-3′,3″-oxetan]-6′-yl)-5-chloropyridine-2-carboxamide] | 9.4 nM

Same assay, conditions: Homo sapiens, SKNBE2, 6 h, read-out: Test Example 3 IC50, SK-N-BE(2) cells, 6 hours, Aβ40 ELISA normalized by viability

Compound | IC50
CC1(C)Oc2ccc(-c3cc(Cl)cnc3F)cc2C2(COC(N)=N2)C12COC2 (stereo not drawn) [RP 154] | 32 nM
CC1(C)Oc2ccc(-c3cncnc3)cc2C2(CSC(N)=N2)C12COC2 (stereo not drawn) [RP 54, 2′,2′-dimethyl-6′-(pyrimidin-5-yl)dispiro[oxetane-3,3′-chromene-4′,4″-[1,3]thiazol]-2″-amine hydrochloride] | 79 nM
CC1(C)Oc2ccc(NC(=O)c3ccc(Cl)cn3)cc2[C@@]2(COC(N)=N2)C12CC2 [Example 221] | 0.16 nM
CC1(C)Oc2ccc(-c3cccc4cnccc34)cc2C2(COC(N)=N2)C12COC2 (stereo not drawn) [RP 180] | 490 nM
NC1=NC2(CO1)c1cc(-c3cncc(Cl)c3)ccc1OCC21CC1 (stereo not drawn) [RP 107] | 460 nM
CC#Cc1cncc(-c2ccc3c(c2)C2(COC(N)=N2)C2(COC2)C(Cc2ccccc2)O3)c1 (stereo not drawn) [RP 201] | 8.7 nM
CC#Cc1cncc(-c2ccc3c(c2)C2(COC(N)=N2)C2(COC2)C(CC2CC2)O3)c1 (stereo not drawn) [RP 205] | 22 nM
COc1ccc(F)c(-c2ccc3c(c2)C2(COC(N)=N2)C2(COC2)CO3)c1 (stereo not drawn) [RP 33] | 950 nM
COCC#Cc1cncc(-c2ccc3c(c2)C2(COC(N)=N2)C2(COC2)CO3)c1 (stereo not drawn) [RP 19, 6′-[5-(3-methoxyprop-1-yn-1-yl)pyridin-3-yl]dispiro[1,3-oxazole-4,4′-chromene-3′,3″-oxetan]-2-amine] | 430 nM
CC1(C)Oc2ccc(Br)cc2C2(CSC(N)=N2)C12COC2 (stereo not drawn) [RP 42] | 5900 nM
NC1=NC2(CO1)c1cc(-c3cncnc3)ccc1OCC21COC1 (stereo not drawn) [RP 36] | 810 nM
NC1=NC2(CO1)c1cc(-c3cnc4[nH]ccc4c3)ccc1OCC21CC1 (stereo not drawn) [RP 61, 6′-(1H-pyrrolo[2,3-b]pyridin-5-yl)dispiro[cyclopropane-1,3′-chromene-4′,4″-[1,3]oxazol]-2″-amine] | 350 nM
CC1(C)Oc2ccc(-c3c(F)ccc(F)c3F)cc2C2(COC(N)=N2)C12COC2 (stereo not drawn) [RP 185] | 760 nM
N#Cc1ccc(C(=O)Nc2ccc3c(c2)C2(COC(N)=N2)C2(CC2)CO3)nc1 (stereo not drawn) [RP 196] | 53 nM
CCC1Oc2ccc(-c3cncnc3)cc2C2(COC(N)=N2)C12COC2 (stereo not drawn) [RP 84] | 410 nM
COc1cccc(-c2ccc3c(c2)C2(COC(N)=N2)C2(COC2)C(C)(C)O3)c1 (stereo not drawn) [RP 142] | 150 nM
CC1(C)Oc2ccc(-c3cccc4cccnc34)cc2C2(COC(N)=N2)C12COC2 (stereo not drawn) [RP 179] | 1400 nM
NC1=NC2(CO1)c1cc(C3=CCCCC3)ccc1OC1(CCC1)C21COC1 (stereo not drawn) [RP 135] | 1800 nM
Cc1cc(-c2ccc3c(c2)C2(COC(N)=N2)C2(COC2)C(C)(C)O3)cnc1F (stereo not drawn) [RP 157] | 660 nM
CCOc1cccc(-c2ccc3c(c2)C2(COC(N)=N2)C2(COC2)C(C)(C)O3)c1 (stereo not drawn) [RP 144] | 460 nM
CNC(=O)c1cc(F)cc(-c2ccc3c(c2)C2(COC(N)=N2)C2(COC2)C(C)(C)O3)c1 (stereo not drawn) [RP 171] | 3100 nM
NC1=NC2(CO1)c1cc(-c3cccc(F)c3F)ccc1OC1(CCC1)C21COC1 (stereo not drawn) [RP 138] | 1500 nM
Cc1cnc(Cl)c(-c2ccc3c(c2)C2(COC(N)=N2)C2(COC2)C(C)(C)O3)c1 (stereo not drawn) [RP 151] | 280 nM
NC1=NC2(CS1)c1cc(Br)ccc1OCC21COC1 (stereo not drawn) [RP 41, 6′-bromodispiro[oxetane-3,3′-chromene-4′,4″-[1,3]thiazol]-2″-amine] | > 30000 nM

Compound | IC50
CC#Cc1cncc(-c2ccc3c(c2)C2(COC(N)=N2)C2(CC2)CO3)c1 (stereo not drawn) [RP 111] | 140 nM
CC#Cc1cncc(-c2ccc3c(c2)C2(COC(N)=N2)C2(COC2)C(CCC)O3)c1 (stereo not drawn) [RP 92] | 37 nM
CC1(C)Oc2ccc(NC(=O)c3ccc(F)cn3)cc2[C@@]2(COC(N)=N2)C12CC2 [Example 222] | 0.62 nM
CCc1cncc(-c2ccc3c(c2)C2(COC(N)=N2)C2(CC2)CO3)c1 (stereo not drawn) [RP 63] | 3300 nM
NC1=NC2(CO1)c1cc(-c3cncc(C#CC4CC4)c3)ccc1OC1(CCC1)C21COC1 (stereo not drawn) [RP 48, 6′-[5-(cyclopropylethynyl)pyridin-3-yl]trispiro[cyclobutane-1,2′chromene-4′,4″-[1,3]oxazole-3′,3′″-oxetan]-2″-amine] | 690 nM
NC1=NC2(CO1)c1cc(-c3cc(F)ccc3F)ccc1OC1(CCC1)C21COC1 (stereo not drawn) [RP 130] | 1700 nM
NC1=NC2(CO1)c1cc(-c3cncc(C(F)F)c3)ccc1OC1(CCC1)C21COC1 (stereo not drawn) [RP 118] | 990 nM
COc1ccc(F)c(-c2ccc3c(c2)C2(COC(N)=N2)C2(COC2)C2(CCC2)O3)c1 (stereo not drawn) [RP 136, 6′-(2-fluoro-5-methoxyphenyl)trispiro[cyclobutane-1,2′-chromene-4′,4″-[1,3]oxazole-3′,3′″-oxetan]-2″-amine] | 660 nM
CC1(C)Oc2ccc(-c3ccc4[nH]ncc4c3)cc2C2(COC(N)=N2)C12COC2 (stereo not drawn) [RP 177] | 1500 nM
CC(C)Cc1ccc2c(c1)C1(COC(N)=N1)C1(COC1)C1(CCC1)O2 (stereo not drawn) [RP 46, 6′-isobutyltrispiro[cyclobutane-1,2′-chromene-4′,4″-[1,3]oxazole-3′,3′″-oxetan]-2″-amine] | 1400 nM
CC#Cc1cncc(-c2ccc3c(c2)C2(COC(N)=N2)C2(COC2)C(C)(C)O3)c1 (stereo not drawn) [RP 110] | 9.2 nM
COc1cccnc1Nc1ccc2c(c1)C1(COC(N)=N1)C1(COC1)C1(CCC1)O2 (stereo not drawn) [RP 45] | 57 nM
COc1cnc(C(=O)Nc2ccc3c(c2)C2(COC(N)=N2)C2(CC2)CO3)cn1 (stereo not drawn) [RP 193] | 81 nM
CC#Cc1cc(-c2ccc3c(c2)C2(COC(N)=N2)C2(COC2)CO3)ncn1 (stereo not drawn) [RP 21] | 410 nM
CC#Cc1cncc(-c2ccc3c(c2)C2(COC(N)=N2)C2(COC2)CO3)n1 (stereo not drawn) [RP 22] | 2900 nM
CC1(C)Oc2ccc(-c3cccnc3Cl)cc2C2(COC(N)=N2)C12COC2 (stereo not drawn) [RP 156] | 180 nM
NC1=NC2(CO1)c1cc(-c3cncnc3)c(F)cc1OCC21CC1 (stereo not drawn) [RP 102] | 240 nM
NC1=NC2(CO1)c1cc(-c3cncc(C(F)(F)F)c3)ccc1OC1(CCC1)C21COC1 (stereo not drawn) [RP 99] | 1900 nM
CC1(C)Oc2ccc(-c3cc(F)ncc3Cl)cc2C2(COC(N)=N2)C12COC2 (stereo not drawn) [RP 158] | 370 nM
NC1=NC2(CO1)c1cc(Br)ccc1OC(CC1CC1)C21COC1 (stereo not drawn) [RP 16b] | 4800 nM
CCOc1cc(-c2ccc3c(c2)C2(COC(N)=N2)C2(COC2)C2(CCC2)O3)cc(C(F)(F)F)c1 (stereo not drawn) [RP 129] | 7300 nM
CC1(C)Oc2ccc(-c3cncnc3)cc2C2(COC(N)=N2)C12COC2 (single isomer, unassigned) [RP 51b, 2′,2′-dimethyl-6′-(pyrimidin-5-yl)dispiro[1,3-oxazole-4,4′-chromene-3′,3″-oxetan]-2-amine] | 72 nM
COCc1cnn(-c2ccc3c(c2)C2(COC(N)=N2)C2(COC2)C2(CCC2)O3)c1 (stereo not drawn) [RP 4] | 7200 nM
CC1(C)Oc2ccc(-c3cc(F)cc(F)c3)cc2C2(COC(N)=N2)C12COC2 (stereo not drawn) [RP 147] | 170 nM

Compound | IC50
NC1=NC2(c3cc(-c4cncnc4)ccc3OCC23CC3)C(F)(F)CO1 (stereo not drawn) [RP 206] | > 30000 nM
NC1=NC2(CO1)c1cc(-c3cc(Cl)cnc3F)ccc1OCC21COC1 (stereo not drawn) [RP 34] | 260 nM
NC1=NC2(CO1)c1cc(-c3cccnc3F)ccc1OC1(CCC1)C21COC1 (stereo not drawn) [RP 71] | 110 nM
CCOc1cccc(-c2ccc3c(c2)C2(COC(N)=N2)C2(COC2)C2(CCC2)O3)c1 (stereo not drawn) [RP 131] | 3200 nM
NC1=NC2(CO1)c1cc(-c3cccnc3F)ccc1OCC21CC1 (stereo not drawn) [RP 103] | 450 nM
CC#Cc1ccnc(-c2ccc3c(c2)C2(COC(N)=N2)C2(COC2)CO3)c1 (stereo not drawn) [RP 56] | 740 nM
CC1(C)Oc2ccc(Br)cc2C2(COC(N)=N2)C12COC2 (stereo not drawn) [RP 6, 6′-bromo-2′,2′-dimethyldispiro[1,3-oxazole-4,4′-chromene-3′,3″-oxetan]-2-amine] | 3900 nM
CC#Cc1cncc(-c2ccc3c(c2)C2(COC(N)=N2)C2(COC2)C2(CCC2)O3)c1 (stereo not drawn) [RP 109] | 48 nM
NC1=NC2(CO1)c1cc(Nc3ncccc3Cl)ccc1OC1(CCC1)C21COC1 (stereo not drawn) [RP 44] | 98 nM
CC#Cc1cncc(-c2ccc3c(c2)C2(CSC(N)=N2)C2(COC2)CO3)c1 (stereo not drawn) [RP 68] | 500 nM
CC#Cc1cncc(-c2ccc3c(c2)C2(COC(N)=N2)C2(COC2)C(CC)O3)c1 (stereo not drawn) [RP 86] | 58 nM
Cc1cc(F)cc(-c2ccc3c(c2)C2(COC(N)=N2)C2(COC2)C(C)(C)O3)c1 (stereo not drawn) [RP 148] | 480 nM
CC#Cc1cncc(-c2ccc3c(c2)C2(COC(N)=N2)C2(CC2)CO3)c1 (single isomer, unassigned) [RP 52a, 6′-[5-(prop-1-yn-1-yl)pyridin-3-yl]dispiro[cyclopropane-1,3′-chromene-4′,4″-[1,3]oxazol]-2″-amine] | 75 nM
CC1(C)Oc2ccc(-c3cccc(Cl)c3)cc2C2(COC(N)=N2)C12COC2 (stereo not drawn) [RP 139] | 140 nM
NC1=NC2(CO1)c1cc(-c3cc(Cl)cnc3F)ccc1OC1(CCC1)C21COC1 (stereo not drawn) [RP 73] | 70 nM
CC1(C)Oc2ccc(-c3cccc(C4CC4)c3)cc2C2(COC(N)=N2)C12COC2 (stereo not drawn) [RP 140] | 410 nM
CC1(C)Oc2ccc(-c3cncnc3)cc2C2(COC(N)=N2)C12COC2 (stereo not drawn) [RP 69] | 40 nM
NC1=NC2(CO1)c1cc(-c3cncnc3)ccc1OCC21CC(F)(F)C1 (stereo not drawn) [RP 208] | 6100 nM
NC1=NC2(CO1)c1cc(-c3cncc(OCC(F)F)c3)ccc1OCC21CC1 (stereo not drawn) [RP 59] | 76 nM
CC#Cc1cncc(-c2cc3c(cc2F)OCC2(CC2)C32COC(N)=N2)c1 (stereo not drawn) [RP 112] | 660 nM
CCOc1cncc(-c2ccc3c(c2)C2(COC(N)=N2)C2(CC2)CO3)c1 (stereo not drawn) [RP 106] | 160 nM
NC1=NC2(CO1)c1cc(-c3cncc(F)c3)ccc1OC1(CCC1)C21COC1 (stereo not drawn) [RP 70] | 960 nM
NC1=NC2(CO1)c1cc(-c3cncnc3)ccc1OC(C1CC1)C21COC1 (stereo not drawn) [RP 88] | 1400 nM
